Reference: paper PMC3501516, “Anti-Diabetic Efficacy and Impact on Amino Acid Metabolism of GRA1, a Novel Small-Molecule Glucagon Receptor Antagonist” (PLoS ONE, 2012)
Marks after values point to notes of the source that are not given here.

Key:
hGCGR HFD/STZ mice = assay: Antihyperglycemic efficacy in hGCGR HFD/STZ mice (acute, chronic, combination with des-fluoro-sitagliptin); format: in vivo, hGCGR mouse
From the text: (§1) The present study made use of a line of hGCGR-expressing mouse (“hGCGR mouse”) generated previously by substituting the hGCGR gene for the mouse GCGR gene. These mice were crossed with C57BL/6J.ob/+ mice (Jackson Laboratories, Bar Harbor, ME) to obtain an hGCGR.ob/+ mouse line. The hGCGR.ob/+ mice were then intercrossed to obtain hGCGR.ob/ob, hGCGR.ob/+, and hGCGR.+/+ mice (with the hGCGR.ob/+ and hGCGR.+/+ mice serving as littermate controls). […] obese (DIO) hGCGR mice were generated by maintaining hGCGR mice on a high-fat diet (HFD) in which 45–60% of calories were in fat (Product S3282, Bio-Serv, Frenchtown, NJ). High-fat-diet-streptozotocin-treated (HFD/STZ) diabetic mice were generated in-house as previously described.
Acute glucose lowering was studied in non-fasted hGCGR.ob/ob mice and HFD/STZ mice administered single doses p.o. of 1, 3 and 10 mg/kg GRA1 in 10 mL/kg 0.5% aqueous methylcellulose. Animals were fasted during the interval between dosing and the final blood glucose measurement. Glucose was measured in blood from tail bleeds using a OneTouch glucometer. In the experiments with hGCGR HFD/STZ mice, treatment groups were matched with respect to body weight and blood glucose levels.
(§2) Animals were dosed chronically with GRA1 and the DPP-4 inhibitor des-fluoro-sitagliptin by administering these agents as food admixtures. The admixtures were prepared in-house and by Research Diets (New Brunswick, NJ), with drug concentrations adjusted weekly on the basis of average food consumption and animal weight to provide targeted daily doses. In the GRA1 experiments, the targeted doses were 3, 6, 10, and 30 mg/kg•day. In des-fluoro-sitagliptin experiments, the targeted dose was 200 mg/kg•day, a relatively high amount necessary because this compound has a half-life in rodents of 1–2 h.
(§3) Plasma glucagon and active GLP-1 were measured using commercial ELISA kits (Linco Research Immunoassay, St. Charles, MO). […] Plasma insulin was determined by ELISA with a commercial kit (ALPCO Diagnostics, Windham, NH). Plasma concentrations of glycated hemoglobin A1c (HbA1c) were measured using a Micromat II test kit from Bio-Rad Laboratories (Hercules, CA). Total cholesterol, low-density lipoprotein cholesterol (LDL-c) and non-LDL-c, and aspartate aminotransferase were measured using a Roche P Modular Clinical Chemistry analyzer (Indianapolis, IN).
Figure 5 GRA1 lowers glucose in hGCGR HFD/STZ mice and further enhances the efficacy of a DPP-4 inhibitor. (A) Mean (±SEM) blood glucose hGCGR HFD/STZ mice treated with a single dose of 1, 3, or 10 mg/kg GRA1. (B) Non-fasted blood glucose concentrations in hGCGR HFD/STZ mice treated for 6 weeks with 10 mg/kg·day GRA1, 200 mg/kg·day des-fluoro-sitagliptin (des-F-sita), or the two agents in combination. (Additional data from this study are in Table 4.) *p<0.05, **p<0.01, and ***p<0.001 versus HFD/STZ controls; ^#non-significant (p>0.05) versus non-STZ controls; n = 8–15 animals per group.

DIO hGCGR mice = assay: Chronic GRA1 treatment of diet-induced obese (DIO) hGCGR mice; format: in vivo, hGCGR mouse; settings: for Free fatty acid, terminal plasma / Insulin, terminal plasma / LDL cholesterol, terminal plasma / Glucagon, terminal plasma / Triglyceride, terminal plasma / Non-LDL cholesterol, terminal plasma / Cholesterol, terminal plasma: 10 weeks; for Free fatty acid, terminal plasma: control 1.04±0.13; for Insulin, terminal plasma: control 8.5±2.0; for LDL cholesterol, terminal plasma: control 19.6±2.3; for Glucagon, terminal plasma: control 164±24; for Triglyceride, terminal plasma: control 181±11; for Non-LDL cholesterol, terminal plasma: control 205±12; for Cholesterol, terminal plasma: control 233±15
From the text: as §1, §2, §3
Figure 4 GRA1 lowers blood glucose in the DIO hGCGR and hGCGR.ob/ob mouse. Mean (±SEM) blood glucose concentrations in (A) non-fasted and (B) fasted DIO hGCGR mice treated with approximately 3 and 10 mg/kg·day GRA1 provided as a food admixture. (Additional data from this study are in Table 2). (C) Mean (±SEM) blood glucose concentrations in the hGCGR.ob/ob mouse following single oral doses of 1, 3, or 10 mg/kg GRA1 or vehicle. (D) Mean (±SEM) non-fasted blood glucose concentrations in hGCGR.ob/ob mice treated for 2–8 weeks with control diet or 10 mg/kg·day GRA1 administered as diet admixture. *p<0.05, **p<0.01, and ***p<0.001 in timepoint-matched comparisons with controls; n = 8 in each group.

Structure (SMILES): COc1ccc2cc(-c3cc(-c4cc(C(F)(F)F)ccc4F)nn3[C@@H](C)c3ccc(C(=O)NCCC(=O)O)cc3)ccc2c1 [GRA1, N-[4-((1S)-1-{3-(2-fluoro-5-trifluoromethylphenyl)-5-[6-methoxynaphth-2-yl]-1H-pyrazol-1-yl}ethyl)benzoyl]-β-alanine]
- HbA1c (hGCGR HFD/STZ mice; 5 weeks of treatment, GRA1 10 mg/kg, Des-F-sita 200 mg/kg, control diet 6.1±0.4): 5.6±0.4%
- 6-h fasting blood glucose (hGCGR HFD/STZ mice; 5 weeks of treatment, GRA1 10 mg/kg, Des-F-sita 200 mg/kg, control diet 323±33): 297 ± 39 mg/dL
- Antihyperglycemic effect during chronic dosing (non-fasted blood glucose) (hGCGR HFD/STZ mice; 6 weeks, GRA1 10 mg/kg·day, des-fluoro-sitagliptin 200 mg/kg·day): significant and sustained
- Liver Triglyceride (hGCGR HFD/STZ mice; 6 weeks, necropsy tissue, GRA1 10 mg/kg, Des-F-sita 200 mg/kg, control diet 143±10): 163 ± 11 µg/mg
- Free fatty acid (hGCGR HFD/STZ mice; 6 weeks, terminal plasma, GRA1 10 mg/kg, Des-F-sita 200 mg/kg, control diet 1.4±0.2): 1.3 ± 0.3 mM
- Active GLP-1 (hGCGR HFD/STZ mice; 6 weeks, terminal plasma, GRA1 10 mg/kg, Des-F-sita 200 mg/kg, control diet 2.5±0.1): 2.7 ± 0.1 pM
- Inactive GLP-1 (hGCGR HFD/STZ mice; 6 weeks, terminal plasma, GRA1 10 mg/kg, Des-F-sita 200 mg/kg, control diet 8.1±1.1): 8.6 ± 0.4 pM
- Plasma glucagon (hGCGR HFD/STZ mice; 6 weeks, terminal plasma, GRA1 10 mg/kg, Des-F-sita 200 mg/kg, control diet 133±21): 209±24* pg/ml
- Triglyceride (hGCGR HFD/STZ mice; 6 weeks, terminal plasma, GRA1 10 mg/kg, Des-F-sita 200 mg/kg, control diet 184±26): 145±22* mg/dL
- Blood glucose after single dose versus non-diabetic controls (hGCGR HFD/STZ mice; single dose 10 mg/kg): comparable to those observed in non-diabetic control animals for 24 h
- Effect on blood glucose, single dose (hGCGR HFD/STZ mice; single doses of 3 and 10 mg/kg): reduced blood glucose significantly and substantially
- Effect on blood glucose (DIO hGCGR mice; 1–10 weeks, 3 or 10 mg/kg•day): significant, sustained reductions in blood glucose
- Food intake and body weight (DIO hGCGR mice; 3 or 10 mg/kg•day (data not shown)): not affected
- Increase of plasma glucagon (DIO hGCGR mice; 3 or 10 mg/kg•day (either dose)): approximately 2 fold
- Free fatty acid, terminal plasma (DIO hGCGR mice; 3 mg/kg•day): 0.84 ± 0.08 mM
- Insulin, terminal plasma (DIO hGCGR mice; 3 mg/kg•day): 4.2 ± 1.1 ng/mL
- LDL cholesterol, terminal plasma (DIO hGCGR mice; 3 mg/kg•day): 25.4±2.9 mg/dLl
- Glucagon, terminal plasma (DIO hGCGR mice; 3 mg/kg•day): 374±53* pg/mL
- Triglyceride, terminal plasma (DIO hGCGR mice; 3 mg/kg•day): 141±13* mg/dL
- Non-LDL cholesterol, terminal plasma (DIO hGCGR mice; 3 mg/kg•day): 216 ± 16 mg/dL
- Cholesterol, terminal plasma (DIO hGCGR mice; 3 mg/kg•day): 255 ± 17 mg/dL
- Free fatty acid, terminal plasma (DIO hGCGR mice; 10 mg/kg•day): 0.69±0.04* mM
- Insulin, terminal plasma (DIO hGCGR mice; 10 mg/kg•day): 5.7 ± 1.4 ng/mL
- LDL cholesterol, terminal plasma (DIO hGCGR mice; 10 mg/kg•day): 19.4±2.4 mg/dLl
- Glucagon, terminal plasma (DIO hGCGR mice; 10 mg/kg•day): 343 ± 85 pg/mL
- Triglyceride, terminal plasma (DIO hGCGR mice; 10 mg/kg•day): 122±10** mg/dL
- Non-LDL cholesterol, terminal plasma (DIO hGCGR mice; 10 mg/kg•day): 186 ± 7 mg/dL
- Cholesterol, terminal plasma (DIO hGCGR mice; 10 mg/kg•day): 213 ± 8 mg/dL
- Islet morphology and ratio of insulin-positive to glucagon-positive cells (pancreas immunohistochemistry) (DIO hGCGR mice; treated vs control (data not shown)): no significant differences
